GI50 and TGI data for nine compounds are collected here from PubChem BioAssay (NCI).

Values joined by “and” are separate entries in the source; they are usually repeats but may differ in a detail not shown here. Identical values can stand only once.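 Grown in 96-well plates, cells were treated for 48 hours with each compound at five concentrations. Insufficient inhibition: endpoint recorded as highest concentration tested. GI50 is the concentration that inhibits growth by half. The concentration for full growth arrest is given as TGI.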

Test systems include SK-MEL-28 melanoma; DU-145 prostate; A498 renal; OVCAR-4 ovarian; HS 578T breast; A549 NSCLC; K-562 leukemia; TK-10 renal; HCC-2998 colon; PC-3 prostate.
Common to all, as to experiment: NCI anticancer screen, dose series, 48 h

As to `O=C(N/N=C/c1ccc([N+](=O)[O-])cc1)c1ccccc1Nc1ccnc(C(F)(F)F)c1`, the GI50 with SK-MEL-28 melanoma is 14.8 µM; with DU-145 prostate, 11.9 µM; with A498 renal, 10.5 µM; with OVCAR-4 ovarian, 14.2 µM; in the assay with HS 578T breast, 2.26 µM; in the assay with A549 NSCLC, 15.4 µM. The GI50 in the assay with K-562 leukemia was 11 µM; in the assay on TK-10 renal it was 0.0799 µM; in the assay with HCC-2998 colon, 17.9 µM; with PC-3 prostate it was 12.9 µM. In addition, the TGI in the assay with SK-MEL-28 melanoma was found to be 64.2 µM; in the assay on DU-145 prostate it was 45.5 µM; with A498 renal, 43.7 µM; in the assay on OVCAR-4 ovarian it was 56.3 µM; in the assay with HS 578T breast it was 49.8 µM; in the assay with A549 NSCLC, 66 µM. Besides, the TGI is greater than 100 µM with K-562 leukemia, 20.2 µM with TK-10 renal, 49.5 µM in the assay with HCC-2998 colon and 29.7 µM with PC-3 prostate.
Take `O=c1oc2ccc(F)cc2c(=O)n1-c1ccc(I)cc1F`: the GI50 was 0.392 µM with SK-MEL-28 melanoma; 0.497 µM in the assay with DU-145 prostate; 0.191 µM in the assay on A498 renal; 0.298 µM in the assay on OVCAR-4 ovarian; 0.352 µM in the assay on HS 578T breast; 2.4 µM in the assay on A549 NSCLC. The GI50 is 0.397 µM in the assay on K-562 leukemia, 1.06 µM with TK-10 renal, 3.1 µM in the assay with HCC-2998 colon and 1.48 µM with PC-3 prostate. The TGI in the assay on SK-MEL-28 melanoma is 1.89 µM; in the assay on DU-145 prostate, 26.4 µM; in the assay with A498 renal it was 0.646 µM; in the assay with HS 578T breast, 2.52 µM; in the assay with A549 NSCLC, greater than 94.7 µM; in the assay on K-562 leukemia it was greater than 100 µM. The figures for the TGI in the assay on TK-10 renal, with HCC-2998 colon and in the assay on PC-3 prostate were 17.5 µM, 9.85 µM and 6.58 µM, respectively.
Turning to `NC(=O)c1ccc(I)c([N+](=O)[O-])c1`, the GI50 in the assay with SK-MEL-28 melanoma was 98.7 µM; with DU-145 prostate, greater than 95.3 µM; in the assay on A498 renal it was greater than 78.7 µM; in the assay with OVCAR-4 ovarian, 17.2 µM; in the assay with HS 578T breast it was greater than 66.2 µM; in the assay with A549 NSCLC it was greater than 94.5 µM. The GI50 was 30.2 µM in the assay with K-562 leukemia, greater than 100 µM with TK-10 renal, 50.4 µM in the assay on HCC-2998 colon and greater than 100 µM in the assay on PC-3 prostate. Also, the TGI with SK-MEL-28 melanoma was greater than 100 µM; in the assay on DU-145 prostate, greater than 100 µM; with A498 renal, greater than 100 µM; with OVCAR-4 ovarian, 32.1 µM; with HS 578T breast it was greater than 100 µM; with A549 NSCLC, greater than 100 µM. Further, the TGI was greater than 79.9 µM in the assay on K-562 leukemia, greater than 100 µM in the assay on TK-10 renal, greater than 100 µM in the assay on HCC-2998 colon and greater than 100 µM in the assay with PC-3 prostate.
Regarding `COC(=O)[C@@H](C)C[C@H](Cc1ccc(F)cc1)NC(=O)c1csc([C@@H](C[C@H](C(C)C)N(C)C(=O)[C@@H](NC(=O)[C@H]2CCCCN2C)C2CC2)OC(C)=O)n1`, the GI50 in the assay with SK-MEL-28 melanoma is 1.05 µM; with DU-145 prostate it was 0.238 µM; in the assay with A498 renal it was 0.598 µM; with OVCAR-4 ovarian, 2.37 µM; with HS 578T breast, 0.307 µM; in the assay with A549 NSCLC, 0.959 µM. In addition, the GI50 with K-562 leukemia is 0.0605 µM; with TK-10 renal, greater than 13.8 µM; in the assay on HCC-2998 colon, 2.48 µM; with PC-3 prostate, 0.415 µM. Besides, the TGI in the assay on SK-MEL-28 melanoma was greater than 25 µM; in the assay on DU-145 prostate it was greater than 9.05 µM; in the assay with A498 renal, 6.87 µM; with OVCAR-4 ovarian, greater than 25 µM; with HS 578T breast it was greater than 7.76 µM; in the assay with A549 NSCLC, greater than 25 µM. Moreover, the TGI with K-562 leukemia, in the assay on TK-10 renal, with HCC-2998 colon and in the assay on PC-3 prostate was greater than 25 µM in each case.
`CC(C)(C)c1cc[n+](C[n+]2ccc(C(C)(C)C)cc2)cc1`: the TGI in the assay with SK-MEL-28 melanoma, with DU-145 prostate, in the assay on A498 renal, with OVCAR-4 ovarian, with HS 578T breast and in the assay with A549 NSCLC was greater than 100 µM each time. For the same compound, the TGI in the assay with K-562 leukemia, with TK-10 renal, in the assay on HCC-2998 colon and in the assay on PC-3 prostate was greater than 100 µM each time.
Turning to `Cc1ccc(S(=O)(=O)NC(Cc2ccccc2)C(=O)CCl)cc1` (centres undefined), the TGI amounted to 32.9 µM in the assay with SK-MEL-28 melanoma; 31.6 µM with DU-145 prostate; 31.7 µM in the assay on A498 renal; 18.9 µM in the assay with OVCAR-4 ovarian; 11.3 µM with HS 578T breast; 31.5 µM in the assay on A549 NSCLC. Also, the TGI in the assay on K-562 leukemia was greater than 100 µM; in the assay with TK-10 renal it was 30.9 µM; in the assay with HCC-2998 colon, 26.9 µM; in the assay with PC-3 prostate, 29.5 µM.
For the compound `O=C1CC=C2C3CC4N(CCC45c4ccccc4N1C25)C/C3=C\CO` (centres undefined), the TGI in the assay on SK-MEL-28 melanoma, with DU-145 prostate, with A498 renal, in the assay with OVCAR-4 ovarian, with HS 578T breast and in the assay on A549 NSCLC was greater than 100 µM each time. Besides, the TGI in the assay with K-562 leukemia, in the assay on TK-10 renal, in the assay with HCC-2998 colon and in the assay on PC-3 prostate was greater than 100 µM each time.
As to `C[C@]1(c2nc3c(C(N)=O)cccc3[nH]2)CCCN1`, the GI50 in the assay with SK-MEL-28 melanoma was 75.1 µM and > 100 µM; in the assay with DU-145 prostate it was 74 µM and > 100 µM; with A498 renal, greater than 100 µM; in the assay on OVCAR-4 ovarian, 66.1 µM and > 100 µM; with HS 578T breast it was greater than 100 µM; with A549 NSCLC it was > 65.8 µM and 74.9 µM. For the same compound, the GI50 in the assay with K-562 leukemia, with TK-10 renal, with HCC-2998 colon and in the assay on PC-3 prostate was greater than 100 µM each time. The TGI in the assay on SK-MEL-28 melanoma, in the assay on DU-145 prostate, with A498 renal, in the assay on OVCAR-4 ovarian, in the assay on HS 578T breast and in the assay with A549 NSCLC was greater than 100 µM each time. Besides, the TGI in the assay with K-562 leukemia, in the assay with TK-10 renal, in the assay with HCC-2998 colon and in the assay on PC-3 prostate was greater than 100 µM in each case.
As to `CCCCCCCC(=O)Nc1nc2[nH]c(CN3CCN(Cc4cccc(I)c4)CC3)c(CN3CCN(Cc4cccc(I)c4)CC3)c2c(=O)[nH]1`, the GI50 with SK-MEL-28 melanoma is 0.937 µM; in the assay with DU-145 prostate, 0.913 µM; with A498 renal it was 0.8 µM; in the assay on OVCAR-4 ovarian it was 0.841 µM; in the assay with HS 578T breast, 0.882 µM; with A549 NSCLC, 0.989 µM. Also, the GI50 was 0.455 µM with K-562 leukemia, 0.828 µM with TK-10 renal, 0.823 µM in the assay on HCC-2998 colon and 0.837 µM in the assay with PC-3 prostate. In addition, the TGI with SK-MEL-28 melanoma was 1.7 µM; in the assay with DU-145 prostate, 1.73 µM; in the assay on A498 renal, 1.62 µM; in the assay with OVCAR-4 ovarian, 1.62 µM; with HS 578T breast, 1.95 µM; in the assay on A549 NSCLC, 1.91 µM. Also, the TGI with K-562 leukemia worked out at 10.8 µM; in the assay with TK-10 renal it was 1.62 µM; in the assay with HCC-2998 colon, 1.54 µM; in the assay with PC-3 prostate, 1.63 µM.
